# Laboratory results as given in patent US6737383B1, “Herbicidal oxadiazolidines” (priority 1999, dated 2004).
# Columns and labels:
# purple nutsedge = test: Test B pre/postemergence purple nutsedge; assay type: in vivo, Cyperus rotundus; settings: for Nutsedge plant response rating: scale of 0 to 10 where 0 is no effect and 10 is complete control
# How it was run: (§1)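 Herbicidal effect was estimated by eye on a ten-point control scale after plants spent twelve to sixteen days in a greenhouse following soil or foliar treatment. Foliar sprays targeted plants at one to four leaves; all doses were formulated in a non-phytotoxic solvent with surfactant.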
# velvetleaf = test: Test B pre/postemergence velvetleaf; assay type: in vivo, Abutilon theophrasti; settings: for Velvetleaf plant response rating: scale of 0 to 10 where 0 is no effect and 10 is complete control
# How it was run: as §1
# sugar beet = test: Test B pre/postemergence sugar beet; assay type: in vivo, Beta vulgaris; settings: for Sugarbeets plant response rating: scale of 0 to 10 where 0 is no effect and 10 is complete control
# How it was run: as §1
# rice = test: Test B flood test rice; assay type: in vivo, Oryza sativa
# How it was run: (§2)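 Each value is a visual injury score relative to controls, with 10 meaning complete control and 0 no effect. Evaluation took place twelve to sixteen days after the 2-leaf-stage plants were treated and kept in the greenhouse.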
# rape = test: Test B pre/postemergence rape; assay type: in vivo, Brassica napus; settings: for Rape plant response rating: scale of 0 to 10 where 0 is no effect and 10 is complete control
# How it was run: as §1
# crabgrass = test: Test B pre/postemergence crabgrass; assay type: in vivo, Digitaria sanguinalis; settings: for Crabgrass plant response rating: scale of 0 to 10 where 0 is no effect and 10 is complete control
# How it was run: as §1
# morningglory = test: Test B pre/postemergence morningglory; assay type: in vivo, Ipomoea hederacea; settings: for Morningglory plant response rating: scale of 0 to 10 where 0 is no effect and 10 is complete control
# How it was run: as §1
# soybean = test: Test B pre/postemergence soybean; assay type: in vivo, Glycine max; settings: for Soybean plant response rating: scale of 0 to 10 where 0 is no effect and 10 is complete control
# How it was run: as §1
# cocklebur = test: Test B pre/postemergence cocklebur; assay type: in vivo, Xanthium strumarium; settings: for Cocklebur plant response rating: scale of 0 to 10 where 0 is no effect and 10 is complete control
# How it was run: as §1
# pigweed = test: Test B pre/postemergence pigweed; assay type: in vivo, Amaranthus retroflexus; settings: for Redroot pigweed plant response rating: scale of 0 to 10 where 0 is no effect and 10 is complete control
# How it was run: as §1
# corn = test: Test B pre/postemergence corn; assay type: in vivo, Zea mays; settings: for Corn plant response rating: scale of 0 to 10 where 0 is no effect and 10 is complete control
# How it was run: as §1
# duck salad = test: Test B flood test duck salad; assay type: in vivo, Heteranthera limosa
# How it was run: as §2
# wild oat = test: Test B pre/postemergence wild oat; assay type: in vivo, Avena fatua; settings: for Wild oats plant response rating: scale of 0 to 10 where 0 is no effect and 10 is complete control
# How it was run: as §1
# giant foxtail = test: Test B pre/postemergence giant foxtail; assay type: in vivo, Setaria faberii; settings: for Giant foxtail plant response rating: scale of 0 to 10 where 0 is no effect and 10 is complete control
# How it was run: as §1
# wheat = test: Test B pre/postemergence wheat; assay type: in vivo, Triticum aestivum; settings: for Wheat plant response rating: scale of 0 to 10 where 0 is no effect and 10 is complete control
# How it was run: as §1
# bamyardgrass = test: Test B flood test barnyardgrass; assay type: in vivo, Echinochloa crus-galli
# How it was run: as §2
# [1] = Postemergence, Rate 125 g/ha, scale 0 to 10, 0 is no effect, 10 is complete control
# [2] = Postemergence, Rate 250 g/ha, scale 0 to 10, 0 is no effect, 10 is complete control
# [3] = Preemergence, Rate 62 g/ha, scale 0 to 10 (0 no effect, 10 complete control)
# [4] = Rate 500 g/ha, Postemergence, scale 0 to 10, 0 no effect, 10 complete control
# [5] = Rate 62 g/ha, flood test species, Pre-emergence, visual evaluation after twelve to sixteen days
# [6] = Rate 125 g/ha, under heading Pre-emergence, flood test species, visual evaluation after twelve to sixteen days
# [7] = Rate 250 g/ha, Pre-emergence, flood-test species, scale 0 to 10, 0 is no effect, 10 is complete control
# [8] = Rate 500 g/ha, Pre-emergence, flood test species, scale 0 to 10 (0 no effect, 10 complete control)
smiles,measurement,setting,value
Cc1nsc(Cl)c1Cn1c(=O)on(C(=O)N(c2ccc(F)cc2)C(C)C)c1=O [Compound 373],"Plant response rating, Nutsedge",purple nutsedge; [1],0
same,"Plant response rating, Nutsedge",purple nutsedge; [2],0
same,"Plant response rating, Nutsedge",purple nutsedge; [3],0
same,Nutsedge plant response rating (0 to 10 scale),"purple nutsedge; Preemergence, Rate 125 g/ha",0
same,Nutsedge plant response rating,"purple nutsedge; Preemergence, Rate 250 g/ha",0
same,Nutsedge plant response rating,"purple nutsedge; Preemergence, Rate 500 g/ha",0
same,Nutsedge plant response rating,"purple nutsedge; Rate 62 g/ha, Postemergence",0
same,"Plant response rating, Nutsedge",purple nutsedge; [4],0
same,"Plant response rating, Velvetleaf",velvetleaf; [1],0
same,"Plant response rating, Velvetleaf",velvetleaf; [2],1
same,"Plant response rating, Velvetleaf",velvetleaf; [3],0
same,Velvetleaf plant response rating (0 to 10 scale),"velvetleaf; Preemergence, Rate 125 g/ha",0
same,Velvetleaf plant response rating,"velvetleaf; Preemergence, Rate 250 g/ha",0
same,Velvetleaf plant response rating,"velvetleaf; Preemergence, Rate 500 g/ha",0
same,Velvetleaf plant response rating,"velvetleaf; Rate 62 g/ha, Postemergence",0
same,"Plant response rating, Velvetleaf",velvetleaf; [4],2
same,"Plant response rating, Sugarbeets",sugar beet; [1],0
same,"Plant response rating, Sugarbeets",sugar beet; [2],1
same,"Plant response rating, Sugarbeets",sugar beet; [3],0
same,Sugarbeets plant response rating (0 to 10 scale),"sugar beet; Preemergence, Rate 125 g/ha",0
same,Sugarbeets plant response rating,"sugar beet; Preemergence, Rate 250 g/ha",4
same,Sugarbeets plant response rating,"sugar beet; Preemergence, Rate 500 g/ha",7
same,Sugarbeets plant response rating,"sugar beet; Rate 62 g/ha, Postemergence",0
same,"Plant response rating, Sugarbeets",sugar beet; [4],4
same,"Plant response rating, Rice (0 to 10 scale, 0 is no effect, 10 is complete control)",rice; [5],0
same,"Rice plant response rating (0 to 10 scale, 0 is no effect, 10 is complete control)",rice; [6],0
same,Rice plant response rating,rice; [7],0
same,Rice plant response rating,rice; [8],0
same,"Plant response rating, Rape",rape; [1],1
same,"Plant response rating, Rape",rape; [2],2
same,"Plant response rating, Rape",rape; [3],0
same,Rape plant response rating (0 to 10 scale),"rape; Preemergence, Rate 125 g/ha",0
same,Rape plant response rating,"rape; Preemergence, Rate 250 g/ha",0
same,Rape plant response rating,"rape; Rate 62 g/ha, Postemergence",0
same,"Plant response rating, Rape",rape; [4],5
same,"Plant response rating, Crabgrass",crabgrass; [1],0
same,"Plant response rating, Crabgrass",crabgrass; [2],1
same,"Plant response rating, Crabgrass",crabgrass; [3],4
same,Crabgrass plant response rating (0 to 10 scale),"crabgrass; Preemergence, Rate 125 g/ha",7
same,Crabgrass plant response rating,"crabgrass; Preemergence, Rate 250 g/ha",10
same,Crabgrass plant response rating,"crabgrass; Preemergence, Rate 500 g/ha",10
same,Crabgrass plant response rating,"crabgrass; Rate 62 g/ha, Postemergence",0
same,"Plant response rating, Crabgrass",crabgrass; [4],2
same,"Plant response rating, Morningglory",morningglory; [1],8
same,"Plant response rating, Morningglory",morningglory; [2],8
same,"Plant response rating, Morningglory",morningglory; [3],0
same,Morningglory plant response rating (0 to 10 scale),"morningglory; Preemergence, Rate 125 g/ha",0
same,Morningglory plant response rating,"morningglory; Preemergence, Rate 250 g/ha",0
same,Morningglory plant response rating,"morningglory; Preemergence, Rate 500 g/ha",1
same,Morningglory plant response rating,"morningglory; Rate 62 g/ha, Postemergence",8
same,"Plant response rating, Morningglory",morningglory; [4],8
same,"Plant response rating, Soybean",soybean; [1],3
same,"Plant response rating, Soybean",soybean; [2],4
same,"Plant response rating, Soybean",soybean; [3],0
same,Soybean plant response rating (0 to 10 scale),"soybean; Preemergence, Rate 125 g/ha",0
same,Soybean plant response rating,"soybean; Preemergence, Rate 250 g/ha",0
same,Soybean plant response rating,"soybean; Preemergence, Rate 500 g/ha",2
same,Soybean plant response rating,"soybean; Rate 62 g/ha, Postemergence",3
same,"Plant response rating, Soybean",soybean; [4],4
same,"Plant response rating, Cocklebur",cocklebur; [1],1
same,"Plant response rating, Cocklebur",cocklebur; [2],2
same,"Plant response rating, Cocklebur",cocklebur; [3],0
same,Cocklebur plant response rating (0 to 10 scale),"cocklebur; Preemergence, Rate 125 g/ha",0
same,Cocklebur plant response rating,"cocklebur; Preemergence, Rate 250 g/ha",0
same,Cocklebur plant response rating,"cocklebur; Preemergence, Rate 500 g/ha",0
same,Cocklebur plant response rating,"cocklebur; Rate 62 g/ha, Postemergence",0
same,"Plant response rating, Cocklebur",cocklebur; [4],2
same,"Plant response rating, Redroot pigweed",pigweed; [1],3
same,"Plant response rating, Redroot pigweed",pigweed; [2],4
same,"Plant response rating, Redroot pigweed",pigweed; [3],0
same,Redroot pigweed plant response rating (0 to 10 scale),"pigweed; Preemergence, Rate 125 g/ha",3
same,Redroot pigweed plant response rating,"pigweed; Preemergence, Rate 250 g/ha",7
same,Redroot pigweed plant response rating,"pigweed; Preemergence, Rate 500 g/ha",10
same,Redroot pigweed plant response rating,"pigweed; Rate 62 g/ha, Postemergence",2
same,"Plant response rating, Redroot pigweed",pigweed; [4],6
same,"Plant response rating, Corn",corn; [1],0
same,"Plant response rating, Corn",corn; [2],0
same,"Plant response rating, Corn",corn; [3],0
same,Corn plant response rating (0 to 10 scale),"corn; Preemergence, Rate 125 g/ha",0
same,Corn plant response rating,"corn; Preemergence, Rate 250 g/ha",3
same,Corn plant response rating,"corn; Preemergence, Rate 500 g/ha",3
same,Corn plant response rating,"corn; Rate 62 g/ha, Postemergence",0
same,"Plant response rating, Corn",corn; [4],0
same,"Plant response rating, Ducksalad (0 to 10 scale, 0 is no effect, 10 is complete control)",duck salad; [5],0
same,"Ducksalad plant response rating (0 to 10 scale, 0 is no effect, 10 is complete control)",duck salad; [6],0
same,Ducksalad plant response rating,duck salad; [7],0
same,Ducksalad plant response rating,duck salad; [8],0
same,"Plant response rating, Wild oats",wild oat; [1],0
same,"Plant response rating, Wild oats",wild oat; [2],0
same,"Plant response rating, Wild oats",wild oat; [3],0
same,Wild oats plant response rating (0 to 10 scale),"wild oat; Preemergence, Rate 125 g/ha",0
same,Wild oats plant response rating,"wild oat; Preemergence, Rate 250 g/ha",0
same,Wild oats plant response rating,"wild oat; Preemergence, Rate 500 g/ha",0
same,Wild oats plant response rating,"wild oat; Rate 62 g/ha, Postemergence",0
same,"Plant response rating, Wild oats",wild oat; [4],0
same,"Plant response rating, Giant foxtail",giant foxtail; [1],3
same,"Plant response rating, Giant foxtail",giant foxtail; [2],3
same,"Plant response rating, Giant foxtail",giant foxtail; [3],8
same,Giant foxtail plant response rating (0 to 10 scale),"giant foxtail; Preemergence, Rate 125 g/ha",8
same,Giant foxtail plant response rating,"giant foxtail; Preemergence, Rate 250 g/ha",10
same,Giant foxtail plant response rating,"giant foxtail; Preemergence, Rate 500 g/ha",10
same,Giant foxtail plant response rating,"giant foxtail; Rate 62 g/ha, Postemergence",0
same,"Plant response rating, Giant foxtail",giant foxtail; [4],6
same,"Plant response rating, Wheat",wheat; [1],0
same,"Plant response rating, Wheat",wheat; [2],0
same,"Plant response rating, Wheat",wheat; [3],0
same,Wheat plant response rating (0 to 10 scale),"wheat; Preemergence, Rate 125 g/ha",0
same,Wheat plant response rating,"wheat; Preemergence, Rate 250 g/ha",0
same,Wheat plant response rating,"wheat; Preemergence, Rate 500 g/ha",0
same,Wheat plant response rating,"wheat; Rate 62 g/ha, Postemergence",0
same,"Plant response rating, Wheat",wheat; [4],0
same,"Plant response rating, Barnyardgrass (0 to 10 scale, 0 is no effect, 10 is complete control)",bamyardgrass; [5],0
same,"Barnyardgrass plant response rating (0 to 10 scale, 0 is no effect, 10 is complete control)",bamyardgrass; [6],0
same,Barnyardgrass plant response rating,bamyardgrass; [7],0
same,Barnyardgrass plant response rating,bamyardgrass; [8],0
